Results as given in patent publication US20080076824A1, “Compounds That Inhibit Replication Of Human Immunodeficiency Virus” (priority 2004, published 2008).
Where “and” joins values, the source holds several entries; their conditions need not be identical. Identical values can stand only once. Entries after “also recorded” stand apart in the source; their conditions may differ. Like-named read-outs stand apart in the source and are kept apart here.

Legend:
HIV-2 (ROD) = assay: microbe, parasite or virus in culture; type: cell-based; settings: CEM cell cultures, syncytia formation, Table 1; read-out: EC50 HIV-2 ROD
In short: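 CEM, C8166 or MT-4 cells (4 to 5×10^5 cells/ml) infected with HIV-2 ROD at ~100 CCID50/ml, then incubated with 5-fold compound dilutions at 37 °C for 4–5 days. Giant cell formation scored microscopically in CEM and C8166 cultures; MT-4 viability counted by trypan blue exclusion.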

HIV-1 (NL4.3) = settings: read-out: EC50 HIV-1 NL3.4; CEM cell cultures, syncytia formation
HIV-2 (EHO) = settings: read-out: EC50 HIV-2 EHO; CEM cell cultures, syncytia formation
HIV-1 (IIIB) = assay: microbe, parasite or virus in culture
In short: (§1)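 MT-4, C8166 or CEM cells (4 to 5×10^5 cells/ml) infected at ~100 CCID50/ml, incubated with 5-fold compound dilutions at 37 °C for 4–5 days. Read-out: microscopic giant-cell formation in CEM and C8166 cultures; viable-cell count by trypan blue in MT-4.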

HIV-2(ROD) = assay: microbe, parasite or virus in culture
In short: as §1

HIV (SF2 virus) [1] = assay: HIV infectivity assay, SF2-infected H9 cells, reverse transcriptase (RT) quantification in supernatant; type: cell-based; settings: for OD405-620 / OD405-620 - Blank / RT mean / RT: fetal calf serum; for RT mean: mean of replicates; for RT: single replicate
HIV (SF2 virus) [2] = assay: HIV infectivity assay, SF2-infected H9 cells, p24 quantification; type: cell-based; settings: for OD1: replicates (1)-(3)
Experimental: The remaining wells were filled with sterile distilled water. The cell culture plates were incubated at 37° C. and 5% CO2. After four days the medium was changed, after eight days the medium was changed and the cells were collected. After 11 days, the infection was stopped, the cells were viewed in a 10× magnification microscope and 650 μl of each cell supernatant was collected and frozen at −80° C. for further analysis. After five more days, the supernatants were thawed and used in a conventional reverse transcriptase (RT) activity assay (e.g., Roche AMPLICOR MONITOR™) or a p24 quantification assay (e.g., Abbott Laboratories, Chicago). (See U.S. Pat. No. 6,258,932 and U.S. patent application Ser. No. 10/235,158, both of which are hereby expressly incorporated by reference in its entireties).
[…] The cells in the samples were counted and then centrifuged. The cells were then resuspended in 10 ml of RPMI 1640 (containing fetal calf serum) and either […] Metabolite X or 100 μM GPG-NH2. Uninfected control and untreated control samples were also included in the experiment. The samples were then incubated overnight at 37° C. at 5% CO2.
Then, the amount of p24 in the samples was analysed using a conventional p24 detection assay (see U.S. Pat. No. 6,258,932).
Three replicate samples (“replicates”) of uninfected samples and untreated samples were also included in the experiment as controls. The inhibition of HIV replication was monitored by quantifying the levels of p24 using a conventional detection kit.
Three replicates of unninfected samples and untreated samples were also included in the experiment as controls.

[3] = test system: Vesicular stomatitis virus; settings: read-out: Minimum inhibitory concentration Vesicular stomatitis virus; HEL; reduces virus-induced cytopathogenicity by 50%
[4] = test system: Vesicular stomatitis virus; settings: read-out: Minimum inhibitory concentration Vesicular stomatitis virus; HeLa; reduces virus-induced cytopathogenicity by 50%
Parainfluenza-3 virus = settings: read-out: Minimum inhibitory concentration Parainfluenza-3 virus; Vero; reduces virus-induced cytopathogenicity by 50%
Reovirus-1 = settings: read-out: Minimum inhibitory concentration Reovirus-1; Vero; reduces virus-induced cytopathogenicity by 50%

With `NCC(N)=O` [G-NH2, glycinamide] the EC50 (HIV-2 (ROD)) was 35 ± 8.7 µM, the EC50 (HIV-1 (NL4.3)) was 45 ± 7.1 µM and the EC50 (HIV-2 (EHO)) was 37 ± 5.8 µM. For the same molecule, the EC50 (HIV-1 (IIIB); read-out: EC50 (C8166) HIV-1 (IIIB), Table 19) was 150 µM, the EC50 (HIV-1 (IIIB); read-out: EC50 (C8166) HIV-1 (IIIB), Table 20) was 150 µM and the EC50 (HIV-1 (IIIB); read-out: EC50 (MT-4) HIV-1 (IIIB), Table 19) was > 500 µM. The EC50 (HIV-1 (IIIB); read-out: EC50 (MT-4) HIV-1(IIIB), Table 20, related set of experiments) was > 500 µM, the EC50 (HIV-2(ROD); read-out: EC50 (C8166) HIV-2 (ROD), Table 19) was 150 µM and the EC50 (HIV-2(ROD); read-out: EC50 (C8166) HIV-2 (ROD), Table 20) was 150 µM. For the same molecule, the EC50 (HIV-2(ROD); read-out: EC50 (MT-4) HIV-2 (ROD), Table 19) was > 500 µM, the EC50 (HIV-2(ROD); read-out: EC50 (MT-4) HIV-2 (ROD), Table 20) was > 500 µM and the OD405-620 (HIV (SF2 virus) [1]; 0.5 μM) was 0.871 and 0.896 and 0.908. The “OD405-620 - Blank” value (HIV (SF2 virus) [1]; 0.5 μM) was 0.845 and 0.87 and 0.882, the RT mean (HIV (SF2 virus) [1]; 0.5 μM) was 9152 pg/mL and the RT (HIV (SF2 virus) [1]; 0.5 μM) was 8927 pg/mL and 9199 pg/mL and 9329 pg/mL. The OD405-620 (HIV (SF2 virus) [1]; 1 μM) was 0.563 and 0.672 and 0.712, the “OD405-620 - Blank” value (HIV (SF2 virus) [1]; 1 μM) was 0.537 and 0.646 and 0.686 and the RT mean (HIV (SF2 virus) [1]; 1 μM) was 6514 pg/mL. For the same molecule, the RT (HIV (SF2 virus) [1]; 1 μM) was 5579 pg/mL and 6764 pg/mL and 7199 pg/mL, the OD405-620 (HIV (SF2 virus) [1]; 2 μM) was 0.868 and 0.903 and 0.528 and the “OD405-620 - Blank” value (HIV (SF2 virus) [1]; 2 μM) was 0.842 and 0.877 and 0.502. For the same molecule, the RT mean (HIV (SF2 virus) [1]; 2 μM) was 7789 pg/mL, the RT (HIV (SF2 virus) [1]; 2 μM) was 8895 pg/mL and 9275 pg/mL and 5199 pg/mL and the OD405-620 (HIV (SF2 virus) [1]; 4 μM) was 0.781 and 0.493 and 0.539. For the same molecule, the “OD405-620 - Blank” value (HIV (SF2 virus) [1]; 4 μM) was 0.755 and 0.467 and 0.513, the RT mean (HIV (SF2 virus) [1]; 4 μM) was 6029 pg/mL and the RT (HIV (SF2 virus) [1]; 4 μM) was 7949 pg/mL and 4818 pg/mL and 5318 pg/mL. For the same molecule, the OD405-620 (HIV (SF2 virus) [1]; 8 μM) was 0.274 and 0.302 and 0.332, the “OD405-620 - Blank” value (HIV (SF2 virus) [1]; 8 μM) was 0.248 and 0.276 and 0.306 and the RT mean (HIV (SF2 virus) [1]; 8 μM) was 2750 pg/mL. For the same molecule, the RT (HIV (SF2 virus) [1]; 8 μM) was 2438 pg/mL and 2742 pg/mL and 3068 pg/mL, the OD405-620 (HIV (SF2 virus) [1]; 16 μM) was 0.563 and 0.861 and 0.902 and the “OD405-620 - Blank” value (HIV (SF2 virus) [1]; 16 μM) was 0.537 and 0.835 and 0.876. For the same molecule, the RT mean (HIV (SF2 virus) [1]; 16 μM) was 158 pg/mL, the RT (HIV (SF2 virus) [1]; 16 μM) was 112 pg/mL and 176 pg/mL and 185 pg/mL and the OD405-620 (HIV (SF2 virus) [1]; 32 μM) was 0.141 and 0.155. For the same molecule, the “OD405-620 - Blank” value (HIV (SF2 virus) [1]; 32 μM) was 0.115 and 0.129, the RT mean (HIV (SF2 virus) [1]; 32 μM) was 21 pg/mL and the RT (HIV (SF2 virus) [1]; 32 μM) was 20 pg/mL and 23 pg/mL. The “inhibition of HIV replication, reverse transcriptase (RT) activity” value (HIV (SF2 virus) [1]; cultures containing boiled fetal calf serum) was “unable to inhibit replication of HIV; also recorded: did not”, the OD1 (HIV (SF2 virus) [2]; 50 μM, fetal calf serum) was 0.182 and 0.105 and 0.319 and the “conc p24” value (HIV (SF2 virus) [2]; 50 μM, human serum) was 714.23 ng/mL and 653.27 ng/mL and 773.51 ng/mL. For the same molecule, the OD2 (HIV (SF2 virus) [2]; 100 μM, fetal calf serum) was 0.075 and 0.069 and 0.071, the “conc p24” value (HIV (SF2 virus) [2]; 100 μM, fetal calf serum) was 0.09 ng/mL and 0.08 ng/mL and the “mean OD” value (HIV (SF2 virus) [2]; 100 μM, fetal calf serum) was 0.077 and 0.070 and 0.074. The “mean OD - blank” value (HIV (SF2 virus) [2]; 100 μM, fetal calf serum) was 0.035 and 0.028 and 0.032, the OD1 (HIV (SF2 virus) [2]; 100 μM, fetal calf serum) was 0.078 and 0.071 and 0.077 and the “conc p24” value (HIV (SF2 virus) [2]; 100 μM, human serum) was 780.21 ng/mL and 785.24 ng/mL and 876.34 ng/mL. For the same molecule, the “inhibition of HIV replication, accumulation of p24” value (HIV (SF2 virus) [2]; human serum) was “unable to inhibit HIV replication in human serum”, the EC50 [3] was > 2 mM and the EC50 [4] was > 2 mM. The EC50 (Parainfluenza-3 virus) was > 2 mM and the EC50 (Reovirus-1) was > 2 mM.
